# Test results taken from patent US9695155B2, “Herbicidal substituted pyrimidinyloxy benzene compounds” (E. I. DU PONT DE NEMOURS AND COMPANY, priority 2013, dated 2017).
# Experiments:
# corn [1] = assay: Test A preemergence; format: in vivo, Zea mays
# In short: (§1)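 Visual injury scored 0–100 (100 = complete control) against untreated controls about 10 days after treatment in a greenhouse. Test chemicals, formulated with surfactant in non-phytotoxic solvent, were sprayed on soil preemergence or on 2-10 cm, one- to two-leaf plants postemergence.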
# barnyardgrass [2] = assay: Test B flooded paddy test; format: in vivo, Echinochloa crus-galli; details: Flood, 250 g ai/ha; 0 to 100 scale where 0 is no effect and 100 is complete control
# In short: (§2)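 Plants at 2-leaf stage; pots flooded to 3 cm above soil and compound applied directly into paddy water, depth held throughout. After 13 to 15 days in greenhouse, visual rating versus controls on 0 (no effect) to 100 (complete control) scale.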
# pigweed [3] = assay: Test A preemergence; format: in vivo, Amaranthus retroflexus
# In short: as §1
# morningglory [4] = assay: Test A preemergence; format: in vivo, Ipomoea spp.
# In short: as §1
# sedge, umbrella [5] = assay: Test B flooded paddy test; format: in vivo, Cyperus difformis; details: Flood, 250 g ai/ha; 0 to 100 scale where 0 is no effect and 100 is complete control
# In short: as §2
# barnyardgrass [6] = assay: Test A postemergence; format: in vivo, Echinochloa crus-galli
# In short: as §1
# morningglory [7] = assay: Test A postemergence; format: in vivo, Ipomoea spp.
# In short: as §1
# barnyardgrass [8] = assay: Test A preemergence; format: in vivo, Echinochloa crus-galli
# In short: as §1
# wheat [9] = assay: Test A postemergence; format: in vivo, Triticum aestivum
# In short: as §1
# velvetleaf [10] = assay: Test A postemergence; format: in vivo, Abutilon theophrasti
# In short: as §1
# giant foxtail [11] = assay: Test A preemergence; format: in vivo, Setaria faberii
# In short: as §1
# large (Lg) crabgrass [12] = assay: Test A postemergence; format: in vivo, Digitaria sanguinalis
# In short: as §1
# sedge, umbrella [13] = assay: Test C flooded paddy test; format: in vivo, Cyperus difformis; details: Flood, scale 0 to 100 (0 no effect, 100 complete control), 13 to 15 days
# From the text: (§3) At time of treatment, test pots were flooded to 3 cm above the soil surface, treated by application of test compounds directly to the paddy water, and then maintained at that water depth for the duration of the test. Treated plants and controls were maintained in a greenhouse for 13 to 15 days, after which time all species were compared to controls and visually evaluated. […] A dash (-) response means no test result.
# wheat [14] = assay: Test A preemergence; format: in vivo, Triticum aestivum
# In short: as §1
# rice [15] = assay: Test C flooded paddy test; format: in vivo, Oryza sativa; details: Flood, scale 0 to 100 (0 no effect, 100 complete control), 13 to 15 days
# In short: (§4)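 In-water treatment: compound dosed into 3 cm flood over soil, water level unchanged throughout. Controls run alongside; visual assessment at day 13–15.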
# giant foxtail [16] = assay: Test A postemergence; format: in vivo, Setaria faberii
# In short: as §1
# velvetleaf [17] = assay: Test A preemergence; format: in vivo, Abutilon theophrasti
# In short: as §1
# Heteranthera limosa = assay: Test B flooded paddy test; format: in vivo; details: Flood, 250 g ai/ha; 0 to 100 scale where 0 is no effect and 100 is complete control
# In short: as §2
# large (Lg) crabgrass [18] = assay: Test A preemergence; format: in vivo, Digitaria sanguinalis
# In short: as §1
# rice [19] = assay: Test B flooded paddy test; format: in vivo, Oryza sativa; details: Flood, 250 g ai/ha; 0 to 100 scale where 0 is no effect and 100 is complete control
# In short: as §2
# pigweed [20] = assay: Test A postemergence; format: in vivo, Amaranthus retroflexus
# In short: as §1
# barnyardgrass [21] = assay: Test C flooded paddy test; format: in vivo, Echinochloa crus-galli; details: Flood, scale 0 to 100 (0 no effect, 100 complete control), 13 to 15 days
# In short: as §4
# ducksalad = assay: Test C flooded paddy test; format: in vivo, Heteranthera limosa; details: Flood, scale 0 to 100 (0 no effect, 100 complete control), 13 to 15 days
# From the text: as §3
# corn [22] = assay: Test A postemergence; format: in vivo, Zea mays
# In short: as §1
# [23] = 125 g ai/ha, 0 to 100 scale where 0 is no effect and 100 is complete control
# [24] = 500 g ai/ha, 0 to 100 scale, 0 no effect, 100 complete control, approx. 10 days
# [25] = 500 g ai/ha, 0 to 100 scale, 0 no effect, 100 complete control
# [26] = 500 g ai/ha, 0 to 100 scale where 0 is no effect and 100 is complete control
compound,measurement,setting,value
Brc1cnc(Oc2ccccc2-n2cc(Br)cn2)nc1 [Compound 8],Corn plant response rating,corn [1]; [23],0
same,Corn plant response rating,corn [1]; [24],0
same,"Plant response rating, Barnyardgrass",barnyardgrass [2],0
same,Pigweed plant response rating,pigweed [3]; [23],90
same,Pigweed plant response rating,pigweed [3]; [24],100
same,Morningglory plant response rating,morningglory [4]; [23],20
same,Morningglory plant response rating,morningglory [4]; [24],30
same,"Plant response rating, Sedge, Umbrella","sedge, umbrella [5]",80
same,"Plant response rating, Barnyardgrass",barnyardgrass [6]; [23],30
same,"Plant response rating, Barnyardgrass",barnyardgrass [6]; [25],90
same,"Plant response rating, Morningglory",morningglory [7]; [23],70
same,"Plant response rating, Morningglory",morningglory [7]; [25],100
same,Barnyardgrass plant response rating,barnyardgrass [8]; [23],50
same,Barnyardgrass plant response rating,barnyardgrass [8]; [24],90
same,"Plant response rating, Wheat",wheat [9]; [23],0
same,"Plant response rating, Wheat",wheat [9]; [25],20
same,"Plant response rating, Velvetleaf",velvetleaf [10]; [23],100
same,"Plant response rating, Velvetleaf",velvetleaf [10]; [25],100
same,"Foxtail, Giant plant response rating",giant foxtail [11]; [23],70
same,"Foxtail, Giant plant response rating",giant foxtail [11]; [24],100
same,"Plant response rating, Crabgrass, Large",large (Lg) crabgrass [12]; [23],50
same,"Plant response rating, Crabgrass, Large",large (Lg) crabgrass [12]; [25],90
same,"Plant response rating, Sedge, Umbrella","sedge, umbrella [13]; 31 g ai/ha",0
same,"Plant response rating, Sedge, Umbrella","sedge, umbrella [13]; 62 g ai/ha",50
same,"Plant response rating, Sedge, Umbrella","sedge, umbrella [13]; 125 g ai/ha",75
same,"Plant response rating, Sedge, Umbrella","sedge, umbrella [13]; 250 g ai/ha",85
same,Wheat plant response rating,wheat [14]; [23],0
same,Wheat plant response rating,wheat [14]; [24],0
same,"Plant response rating, Rice",rice [15]; 31 g ai/ha,0
same,"Plant response rating, Rice",rice [15]; 62 g ai/ha,0
same,"Plant response rating, Rice",rice [15]; 125 g ai/ha,10
same,"Plant response rating, Rice",rice [15]; 250 g ai/ha,10
same,"Plant response rating, Foxtail, Giant",giant foxtail [16]; [23],50
same,"Plant response rating, Foxtail, Giant",giant foxtail [16]; [25],90
same,Velvetleaf plant response rating,velvetleaf [17]; [23],100
same,Velvetleaf plant response rating,velvetleaf [17]; [24],100
same,"Plant response rating, Ducksalad",Heteranthera limosa,100
same,"Crabgrass, Large plant response rating",large (Lg) crabgrass [18]; [23],80
same,"Crabgrass, Large plant response rating",large (Lg) crabgrass [18]; [24],100
same,"Plant response rating, Rice",rice [19],30
same,"Plant response rating, Pigweed",pigweed [20]; [23],100
same,"Plant response rating, Pigweed",pigweed [20]; [25],100
same,"Plant response rating, Barnyardgrass",barnyardgrass [21]; 31 g ai/ha,0
same,"Plant response rating, Barnyardgrass",barnyardgrass [21]; 62 g ai/ha,0
same,"Plant response rating, Barnyardgrass",barnyardgrass [21]; 125 g ai/ha,0
same,"Plant response rating, Barnyardgrass",barnyardgrass [21]; 250 g ai/ha,0
same,"Plant response rating, Ducksalad",ducksalad; 31 g ai/ha,0
same,"Plant response rating, Ducksalad",ducksalad; 62 g ai/ha,40
same,"Plant response rating, Ducksalad",ducksalad; 125 g ai/ha,50
same,"Plant response rating, Ducksalad",ducksalad; 250 g ai/ha,70
same,"Plant response rating, Corn",corn [22]; [23],0
same,"Plant response rating, Corn",corn [22]; [25],30
C#Cc1cnn(-c2ccccc2Oc2ncc(Cl)cn2)c1 [Compound 188],Corn plant response rating (0 to 100 scale),corn [1]; 125 g ai/ha,0
same,Corn plant response rating,corn [1]; [26],20
same,"Plant response rating, Barnyardgrass",barnyardgrass [2],30
same,Pigweed plant response rating (0 to 100 scale),pigweed [3]; 125 g ai/ha,100
same,Pigweed plant response rating,pigweed [3]; [26],100
same,Morningglory plant response rating (0 to 100 scale),morningglory [4]; 125 g ai/ha,10
same,Morningglory plant response rating,morningglory [4]; [26],90
same,"Plant response rating, Sedge, Umbrella","sedge, umbrella [5]",90
same,Barnyardgrass plant response rating,barnyardgrass [6]; [23],30
same,"Plant response rating, Barnyardgrass",barnyardgrass [6]; [26],90
same,Morningglory plant response rating,morningglory [7]; [23],40
same,"Plant response rating, Morningglory",morningglory [7]; [26],100
same,"Barnyardgrass plant response rating (0 to 100 scale, 0 is no effect, 100 is complete control)",barnyardgrass [8]; 125 g ai/ha,30
same,Barnyardgrass plant response rating,barnyardgrass [8]; [26],100
same,Wheat plant response rating,wheat [9]; [23],0
same,"Plant response rating, Wheat",wheat [9]; [26],30
same,Velvetleaf plant response rating,velvetleaf [10]; [23],90
same,"Plant response rating, Velvetleaf",velvetleaf [10]; [26],100
same,"Foxtail, Giant plant response rating (0 to 100 scale)",giant foxtail [11]; 125 g ai/ha,90
same,"Foxtail, Giant plant response rating",giant foxtail [11]; [26],100
same,"Crabgrass, Large plant response rating",large (Lg) crabgrass [12]; [23],50
same,"Plant response rating, Crabgrass, Large",large (Lg) crabgrass [12]; [26],80
same,"Plant response rating, Sedge, Umbrella","sedge, umbrella [13]; 31 g ai/ha",0
same,"Plant response rating, Sedge, Umbrella","sedge, umbrella [13]; 62 g ai/ha",0
same,"Plant response rating, Sedge, Umbrella","sedge, umbrella [13]; 125 g ai/ha",50
same,"Plant response rating, Sedge, Umbrella","sedge, umbrella [13]; 250 g ai/ha",75
same,Wheat plant response rating (0 to 100 scale),wheat [14]; 125 g ai/ha,0
same,Wheat plant response rating,wheat [14]; [26],30
same,"Plant response rating, Rice",rice [15]; 31 g ai/ha,0
same,"Plant response rating, Rice",rice [15]; 62 g ai/ha,0
same,"Plant response rating, Rice",rice [15]; 125 g ai/ha,0
same,"Plant response rating, Rice",rice [15]; 250 g ai/ha,0
same,"Foxtail, Giant plant response rating",giant foxtail [16]; [23],60
same,"Plant response rating, Foxtail, Giant",giant foxtail [16]; [26],90
same,Velvetleaf plant response rating (0 to 100 scale),velvetleaf [17]; 125 g ai/ha,70
same,Velvetleaf plant response rating,velvetleaf [17]; [26],100
same,"Plant response rating, Ducksalad",Heteranthera limosa,90
same,"Crabgrass, Large plant response rating (0 to 100 scale)",large (Lg) crabgrass [18]; 125 g ai/ha,90
same,"Crabgrass, Large plant response rating",large (Lg) crabgrass [18]; [26],100
same,"Plant response rating, Rice",rice [19],0
same,Pigweed plant response rating,pigweed [20]; [23],100
same,"Plant response rating, Pigweed",pigweed [20]; [26],100
same,"Plant response rating, Barnyardgrass",barnyardgrass [21]; 31 g ai/ha,0
same,"Plant response rating, Barnyardgrass",barnyardgrass [21]; 62 g ai/ha,0
same,"Plant response rating, Barnyardgrass",barnyardgrass [21]; 125 g ai/ha,0
same,"Plant response rating, Barnyardgrass",barnyardgrass [21]; 250 g ai/ha,0
same,"Plant response rating, Ducksalad",ducksalad; 31 g ai/ha,0
same,"Plant response rating, Ducksalad",ducksalad; 62 g ai/ha,0
same,"Plant response rating, Ducksalad",ducksalad; 125 g ai/ha,40
same,"Plant response rating, Ducksalad",ducksalad; 250 g ai/ha,60
same,Corn plant response rating,corn [22]; [23],20
same,"Plant response rating, Corn",corn [22]; [26],50
